# Test results from patent US11999716B2, “WDR5 inhibitors and modulators” (priority 2018, dated 2024).
# Target: WDR5 (Homo sapiens, UniProt P61964)
# Assay: biochemical
# Format: binding
# Settings: Ki for Inhibition of WDR5 by TR-FRET assay
row,SMILES,Ki [nM]
1,"CCn1cc(-c2cc(Cn3ccsc3=N)cc3c2CCN(Cc2cc(C)nn2C)C3=O)c(C(F)(F)F)n1 [Example 106, 2-((1,3-Dimethyl-1H-pyrazol-5-yl)methyl)-5-(1-ethyl-3-(trifluoromethyl)-1H-pyrazol-4-yl)-7-((2-iminothiazol-3(2H)-yl)methyl)-3,4-dihydroisoquinolin-1(2H)-one]",< 0.05

# Same assay, conditions: […]; 10mer-Thr-FAM probe 150 nM; Tb-anti-HIS 1 nM; 60 min, room temperature; read-out: Ki for Inhibition of WDR5 by TR-FRET assay
row,SMILES,Ki [nM]
1,"COc1cc(CN2CCc3c(cc(Cn4ccn(C)c4=N)cc3-c3ccc(F)cc3C)C2=O)cc(OC)c1 [Example 29, 2-(3,5-Dimethoxybenzyl)-5-(4-fluoro-2-methylphenyl)-7-((2-imino-3-methyl-2,3-dihydro-1H-imidazol-1-yl)methyl)-3,4-dihydroisoquinolin-1(2H)-one]",< 0.05
2,"COc1cc(CN2CCc3c(cc(CN4CCCC4=N)cc3-c3cccnc3C(F)(F)F)C2=O)cc(OC)c1 [Example 107, 2-(3,5-Dimethoxybenzyl)-7-((2-iminopyrrolidin-1-yl)methyl)-5-(2-(trifluoromethyl)pyridin-3-yl)-3,4-dihydroisoquinolin-1(2H)-one]",0.11

# Test system: MV4:11 human cancer cell lines
# Assay: Cellular viability / anti-proliferative activity, CellTiter-Glo, 5 day protocol
# Format: cell-based
# Settings: Homo sapiens, MV4-11, 120 h, MV4:11 cells; 5 day incubation; CellTiter-Glo; mean of minimum two replicates; read-out: GI50 on cellular proliferation of MV4:11 human cancer cell lines
# Method in brief: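 Compounds were tested over 22 two-fold dilutions starting at 30 μM in 0.3% DMSO, with 200 cells per well (7200 cells/mL). Viability was measured by CellTiter-Glo luminescence at day 5.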
row,SMILES,GI50 [nM]
1,"COc1cc(CN2CCc3c(cc(Cn4cc(C)nc4C)cc3-c3ccc(F)cc3C)C2=O)cc(OC)c1 [Example 18, 2-(3,5-Dimethoxybenzyl)-7-((2,4-dimethyl-1H-imidazol-1-yl)methyl)-5-(4-fluoro-2-methylphenyl)-3,4-dihydroisoquinolin-1(2H)-one]",> 938
2,"COc1cc(CN2CCc3c(cc(Cn4ccn(C)c4=N)cc3-c3ccc(C)nc3C)C2=O)cc(OC)c1 [Example 68, 2-(3,5-Dimethoxybenzyl)-5-(2,6-dimethylpyridin-3-yl)-7-((2-imino-3-methyl-2,3-dihydro-1H-imidazol-1-yl)methyl)-3,4-dihydroisoquinolin-1(2H)-one]",333
3,"Cc1nccn1Cc1cc2c(c(-c3cn(C)nc3C(F)(F)F)c1)CCN(Cc1cc(Cl)cc3ccccc13)C2=O [Example 225, 2-((3-Chloronaphthalen-1-yl)methyl)-7-((2-methyl-1H-imidazol-1-yl)methyl)-5-(1-methyl-3-(trifluoromethyl)-1H-pyrazol-4-yl)-3,4-dihydroisoquinolin-1(2H)-one]",195
4,"COc1ccnc(CN2CCc3c(cc(Cn4ccn(C)c4=N)cc3C3CC3)C2=O)c1 [Example 54, 5-Cyclopropyl-7-((2-imino-3-methyl-2,3-dihydro-1H-imidazol-1-yl)methyl)-2-((4-methoxypyridin-2-yl)methyl)-3,4-dihydroisoquinolin-1(2H)-one]",880
5,"Cc1nccn1Cc1cc2c(c(-c3cn(C)nc3C(F)(F)F)c1)CCN(CC1CCCCN1C)C2=O (centres unmarked) [Example 171, 7-((2-Methyl-1H-imidazol-1-yl)methyl)-5-(1-methyl-3-(trifluoromethyl)-1H-pyrazol-4-yl)-2-((1-methylpiperidin-2-yl)methyl)-3,4-dihydroisoquinolin-1(2H)-one]",6900
6,"Cc1nccn1Cc1cc2c(c(-c3cn(C)nc3C(F)(F)F)c1)CCN([C@@H](C)c1cc(C3CC3)nn1C)C2=O [Example 239, (S)-2-(1-(3-Cyclopropyl-1-methyl-1H-pyrazol-5-yl)ethyl)-7-((2-methyl-1H-imidazol-1-yl)methyl)-5-(1-methyl-3-(trifluoromethyl)-1H-pyrazol-4-yl)-3,4-dihydroisoquinolin-1(2H)-one]",573
7,"CCc1nccn1Cc1cc2c(c(-c3ccc(F)cc3C)c1)CCN([C@H](c1cc(C)ccn1)C1CC1)C2=O [Example 13, (S)-2-(Cyclopropyl(4-methylpyridin-2-yl)methyl)-7-((2-ethyl-1H-imidazol-1-yl)methyl)-5-(4-fluoro-2-methylphenyl)-3,4-dihydroisoquinolin-1(2H)-one]",105
8,"CCn1cc(-c2cc(Cn3ccn(C)c3=N)cc3c2CCN(Cc2cc(OC)ccn2)C3=O)c(C(F)(F)F)n1 [Example 57, 5-(1-Ethyl-3-(trifluoromethyl)-1H-pyrazol-4-yl)-7-((2-imino-3-methyl-2,3-dihydro-1H-imidazol-1-yl)methyl)-2-((4-methoxypyridin-2-yl)methyl)-3,4-dihydroisoquinolin-1(2H)-one]",50
9,"CCn1cc(-c2cc(Cn3cnc(C)c3C)cc3c2CCN([C@@H](C)c2cc(OC)ccn2)C3=O)c(C(F)(F)F)n1 [Example 178, (S)-7-((4,5-Dimethyl-1H-imidazol-1-yl)methyl)-5-(1-ethyl-3-(trifluoromethyl)-1H-pyrazol-4-yl)-2-(1-(4-methoxypyridin-2-yl)ethyl)-3,4-dihydroisoquinolin-1(2H)-one]",152

# Same assay, conditions: Homo sapiens, MV4-11, 120 h, read-out: GI50 on cellular proliferation of MV4:11 human cancer cell lines
row,SMILES,GI50 [nM]
1,"COc1cc(CN2CCc3c(cc(Cn4ccn(C)c4=N)cc3-c3ccc(F)cc3C)C2=O)cc(OC)c1 [Example 29, 2-(3,5-Dimethoxybenzyl)-5-(4-fluoro-2-methylphenyl)-7-((2-imino-3-methyl-2,3-dihydro-1H-imidazol-1-yl)methyl)-3,4-dihydroisoquinolin-1(2H)-one]",63
2,"CCn1cc(-c2cc(Cn3ccsc3=N)cc3c2CCN(Cc2cc(C)nn2C)C3=O)c(C(F)(F)F)n1 [Example 106, 2-((1,3-Dimethyl-1H-pyrazol-5-yl)methyl)-5-(1-ethyl-3-(trifluoromethyl)-1H-pyrazol-4-yl)-7-((2-iminothiazol-3(2H)-yl)methyl)-3,4-dihydroisoquinolin-1(2H)-one]",182
